Experimental data taken from PubChem BioAssay AID248 (DTP/NCI, 2004).
Several values for one entry are separate records, joined by “and”; a condition that tells them apart may be missing. Identical values can stand only once. Toxic doses and inconclusive results are not listed.

Tested on: L1210 leukemia ip in BDF1 mice, survival T/C
Test: NCI In Vivo Anticancer Drug Screen. Data for tumor model L1210 Leukemia (intraperitoneal) in B6D2F1 (BDF1) mice
Conditions: endpoint: mean survival time, higher = longer survival
Summary of the method: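 Value reflects the ratio of survival in compound-treated mice to survival in vehicle-treated controls, with both groups carrying the same transplanted tumor.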

[1] = dose: 100.0 mg/kg/injection, schedule: Q04DX003 (ip), vehicle: saline with Tween-80
[2] = dose: 100.0 mg/kg/injection, schedule: Q01DX001 (ip), vehicle: saline
[3] = dose: 200.0 mg/kg/injection, schedule: Q01DX001 (ip), vehicle: saline
[4] = dose: 400.0 mg/kg/injection, schedule: Q01DX001 (ip), vehicle: saline

With `COC1OC2COC(c3ccccc3)OC2C(O)C1N` (stereo not drawn) the T/C (dose: 50.0 mg/kg/injection, schedule: Q04DX003 (ip), vehicle: saline with Tween-80) was 93 % of control and the T/C [1] was 98 % of control.
`CCNC(=S)NNc1ccccc1` was tested, and the T/C [1] was 100 % of control and the T/C (dose: 200.0 mg/kg/injection, schedule: Q04DX003 (ip), vehicle: saline with Tween-80) was 96 % of control.
`CC(O)C(Cl)(Cl)Cl` (stereo not drawn) was tested, and the T/C (dose: 75.0 mg/kg/injection, schedule: Q01DX001 (ip), vehicle: carboxymethylcellulose (CMC)) was 100 % of control, the T/C (dose: 150.0 mg/kg/injection, schedule: Q01DX001 (ip), vehicle: carboxymethylcellulose (CMC)) was 98 % of control and the T/C (dose: 300.0 mg/kg/injection, schedule: Q01DX001 (ip), vehicle: carboxymethylcellulose (CMC)) was 106 % of control.
`C[C@@H]1C[C@@]2(C)[C@@H](CC[C@@H]3[C@@H]2CC[C@]2(C)[C@@H](O)CC[C@@H]32)CC1=O` was tested, and the T/C (dose: 100.0 mg/kg/injection, schedule: Q01DX Z (sc), vehicle: steriod suspending solution) was 105 % of control, the T/C (dose: 200.0 mg/kg/injection, schedule: Q01DX Z (sc), vehicle: steriod suspending solution) was 108 % of control and the T/C (dose: 400.0 mg/kg/injection, schedule: Q01DX Z (sc), vehicle: steriod suspending solution) was 105 % of control. The T/C (dose: 800.0 mg/kg/injection, schedule: Q01DX Z (sc), vehicle: steriod suspending solution) was 105 % of control.
In the case of `O=C(c1ccccc1)c1ccsc1C(=O)c1ccccc1`, the T/C (dose: 50.0 mg/kg/injection, schedule: Q01DX009 (ip), vehicle: saline with Tween-80) is reported as 89 % of control, the T/C (dose: 100.0 mg/kg/injection, schedule: Q01DX009 (ip), vehicle: saline with Tween-80) is reported as 86 % of control and the T/C (dose: 200.0 mg/kg/injection, schedule: Q01DX009 (ip), vehicle: saline with Tween-80) is reported as 89 % of control.
In the case of `O=C1CCN(S(=O)(=O)c2ccccc2)c2ccccc21`, the T/C [2] is reported as 94 % of control, the T/C [3] is reported as 94 % of control and the T/C [4] is reported as 92 % of control.
For `CCCCCCCCCCCCSc1nccnc1C`, the T/C (dose: 50.0 mg/kg/injection, schedule: Q01DX009 (ip), vehicle: Klucel (hydroxypropylcellulose) (HPC)) was 113 % of control, the T/C (dose: 100.0 mg/kg/injection, schedule: Q01DX009 (ip), vehicle: Klucel (hydroxypropylcellulose) (HPC)) was 106 % of control and the T/C (dose: 200.0 mg/kg/injection, schedule: Q01DX009 (ip), vehicle: Klucel (hydroxypropylcellulose) (HPC)) was 92 % of control.
In the case of `CC1CCC(NCCOC(=O)c2ccc(N)cc2)CC1` (stereo not drawn), the T/C (dose: 75.0 mg/kg/injection, schedule: Q01DX001 (ip), vehicle: other) is reported as 94 % of control and the T/C (dose: 150.0 mg/kg/injection, schedule: Q01DX001 (ip), vehicle: other) is reported as 108 % of control.
With `CCN(CC)c1ccc(N=C2C=C(C(=O)Nc3ccc(S(C)(=O)=O)cc3)C(=O)c3ccccc32)c(C)c1` the T/C [2] was 92 % of control, the T/C [3] was 96 % of control and the T/C [4] was 96 % of control.
`Nc1nc(SN=Nc2ccc(S(N)(=O)=O)cc2)c2[nH]cnc2n1` was tested, and the T/C (dose: 0.16 mg/kg/injection, schedule: Q01DX Z (ip), vehicle: other) was 110 % of control, the T/C (dose: 1.5 mg/kg/injection, schedule: Q04DX003 (ip), vehicle: saline with Tween-80) was 111 % of control and the T/C (dose: 2.0 mg/kg/injection, schedule: Q01DX Z (ip), vehicle: methylcellulose (MC)) was 165 % of control. For the same molecule, the T/C (dose: 3.0 mg/kg/injection, schedule: Q01DX Z (ip), vehicle: methylcellulose (MC)) was 154 % of control, the T/C (dose: 5.0 mg/kg/injection, schedule: Q01DX Z (ip), vehicle: other) was 153 % of control and the T/C (dose: 12.0 mg/kg/injection, schedule: Q04DX003 (ip), vehicle: saline with Tween-80) was 155 % of control. For the same molecule, the T/C (dose: 17.0 mg/kg/injection, schedule: Q04DX003 (ip), vehicle: saline with Tween-80) was 158 % of control and 159 % of control, the T/C (dose: 20.0 mg/kg/injection, schedule: Q01DX Z (ip), vehicle: methylcellulose (MC)) was 124 % of control and the T/C (dose: 25.0 mg/kg/injection, schedule: Q04DX003 (ip), vehicle: saline with Tween-80) was 151 % of control and 190 % of control. The T/C (dose: 37.0 mg/kg/injection, schedule: Q04DX003 (ip), vehicle: saline with Tween-80) was 155 % of control and 164 % of control, the T/C (dose: 68.0 mg/kg/injection, schedule: Q01DX Z (ip), vehicle: other) was 109 % of control and the T/C (dose: 102.0 mg/kg/injection, schedule: Q01DX Z (ip), vehicle: other) was 102 % of control.
`Cn1c(O)c(N=NC(N)=S)c2ccccc21` was tested, and the T/C (dose: 3.0 mg/kg/injection, schedule: Q01DX015 (ip), vehicle: carboxymethylcellulose (CMC)) was 96 % of control, the T/C (dose: 6.0 mg/kg/injection, schedule: Q01DX015 (ip), vehicle: carboxymethylcellulose (CMC)) was 103 % of control and the T/C (dose: 12.0 mg/kg/injection, schedule: Q01DX015 (ip), vehicle: carboxymethylcellulose (CMC)) was 97 % of control. For the same molecule, the T/C (dose: 25.0 mg/kg/injection, schedule: Q01DX015 (ip), vehicle: carboxymethylcellulose (CMC)) was 106 % of control, the T/C (dose: 50.0 mg/kg/injection, schedule: Q01DX015 (ip), vehicle: carboxymethylcellulose (CMC)) was 103 % of control and the T/C (dose: 62.5 mg/kg/injection, schedule: Q01DX015 (ip), vehicle: carboxymethylcellulose (CMC)) was 107 % of control.
